Results reported in US20110189157A1, “USE OF HUMAN HYALURONIDASES FOR AXONAL REGROWTH” (priority 2008, published 2011).

How the values were obtained:
[1] = test system: damaged adult nigrostriatal tract; conditions: rat, cited from earlier work
[2] = Chondroitinase activity assay: cleavage of biotin-labelled CS in solution, intact substrate detected on protamine-coated microplate; conditions: 0.8-100 milliunits enzyme; biotin-CS 0.01 μg/ml; 37° C., 1 h; FIG. 3
Procedure: A solid phase, for example a microtiter plate, is coated with protamine by incubation of 100 μl/well of a 0.003% solution of protamine sulfate at 37° C. for 24 hours. Thereafter, plates were washed 3 times with A dest. and stored in the dark.
Plates were washed 3 times with buffer (PBS/0.01% Tween 20) and Avidin-POD (1 μg/ml in PBS/5% BSA) was added.
After 15 min plates were washed 5 times with PBS and 100 μl OPD-solution (0.667 mg/ml) was added.
After 15 min the reaction was stopped by addition of 100 μl of 0.5 Mol H2SO4. OD was measured at 490 nm using a microplate reader.
The enzyme reaction is carried out by mixing 50 μl of biotin-labelled CS at 0.01 μg/ml with increasing amounts of chondroitinase ABC, e.g. 0.8-100 nano-units of chondroitinase ABC. Samples were brought to a volume of 100 μl by addition of PBS.
This mixture is incubated at 37° C. for 1 h. Thereafter the enzyme was inactivated by heating at 100° C. for 10 min.
Samples (85 μl of the samples) were transferred to the CS-BP (protamine)-coated microplate and incubated for 1 hour at room temperature.
The enzyme reaction is carried out by mixing 50 μl of biotin-labelled CS at 0.01 μg/ml with increasing amounts of hyaluronidase, e.g. 0.8-100 milliunits of hyaluronidase. Samples were brought to a volume of 100 μl by addition of PBS.
This mixture is incubated at 37° C. for 1 h. […]

| Substance | persistence of active enzyme in the injured CNS ([1]; in vivo) | axon regeneration ([1]; single dose injected adjacent to damaged nigrostriatal tract) | degradation of biotin-labelled chondroitin sulfate (decrease in signal, OD 490 nm) [2] |
| --- | --- | --- | --- |
| chondroitinase ABC | at least 10 days | promoted axon regeneration | – |
| hyaluronidase | – | – | dose-dependent degradation |
